Laboratory results taken from ChEMBL document CHEMBL1201862, “PubChem BioAssay data set” (2004).
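Dose response: 5 concentrations. Exposure: 48 h. Format: 96-well plates. Endpoint: linear interpolation; highest concentration if not reached. The concentration for 50% growth inhibition is given as GI50.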 Calls of active or inactive are those of the source. Cut-off read from the data, not from the text of the source: active = GI50 up to about 1.1 µM and inactive = higher.

Key:
Experiment in all cases: NCI-60 cell line screen, 48 h
ACHN = tested on: ACHN
CCRF-CEM = tested on: CCRF-CEM
COLO 205 = tested on: COLO 205
IGROV-1 = tested on: IGROV-1
KM12 = tested on: KM12
MDA-MB-231 = tested on: MDA-MB-231
MDA-MB-435 = tested on: MDA-MB-435
Malme-3M = tested on: Malme-3M
NCI-H23 = tested on: NCI-H23
NCI-H460 = tested on: NCI-H460
OVCAR-8 = tested on: OVCAR-8
RPMI-8226 = tested on: RPMI-8226
RXF 393 = tested on: RXF 393
SF-268 = tested on: SF-268
SF-295 = tested on: SF-295
SNB-19 = tested on: SNB-19
SR = tested on: SR
SW-620 = tested on: SW-620
TK-10 = tested on: TK-10
UACC-257 = tested on: UACC-257

SMILES | GI50 (ACHN) | GI50 (CCRF-CEM) | GI50 (COLO 205) | GI50 (IGROV-1) | GI50 (KM12) | GI50 (MDA-MB-231) | GI50 (MDA-MB-435) | GI50 (Malme-3M) | GI50 (NCI-H23) | GI50 (NCI-H460) | GI50 (OVCAR-8) | GI50 (RPMI-8226) | GI50 (RXF 393) | GI50 (SF-268) | GI50 (SF-295) | GI50 (SNB-19) | GI50 (SR) | GI50 (SW-620) | GI50 (TK-10) | GI50 (UACC-257)
Oc1cc(Br)cc2cc(Cl)cnc12 | 1.95 µM (inactive) | 1.53 µM (inactive) | 21.4 µM (inactive) | 1.26 µM (inactive) | 4.06 µM (inactive) | 20.8 µM (inactive) | 3.3 µM (inactive) | 2.52 µM (inactive) | 5.47 µM (inactive) | 1.09 µM (active) | 2.45 µM (inactive) | 2.54 µM (inactive) | 1.95 µM (inactive) | 0.893 µM (active) | 2.08 µM (inactive) | 3.11 µM (inactive) | 1.11 µM (active) | 2.83 µM (inactive) | 28.5 µM (inactive) | 3.27 µM (inactive)
CCCCNC1CCC2(SCCS2)c2[nH]c3ccccc3c21 (stereo not given) | 27.9 µM (inactive) | 3.2 µM (inactive) | 17.5 µM (inactive) | 25.4 µM (inactive) | 6.37 µM (inactive) | 16.6 µM (inactive) | 5.21 µM (inactive) | 16.5 µM (inactive) | 32 µM (inactive) | 33.3 µM (inactive) | 14.4 µM (inactive) | 1.77 µM (inactive) | 21 µM (inactive) | 19.9 µM (inactive) | 34.5 µM (inactive) | 29.6 µM (inactive) | 3.76 µM (inactive) | 25.8 µM (inactive) | 13.2 µM (inactive) | 4.09 µM (inactive)
COc1cc2c(SCCN(C)C)nc3ccccc3c2c2ccccc12 | 1.78 µM (inactive) | 0.281 µM (active) | 1.68 µM (inactive) | 1.3 µM (inactive) | 1.56 µM (inactive) | 2.25 µM (inactive) | 1.96 µM (inactive) | 1.82 µM (inactive) | 5.46 µM (inactive) | 1.68 µM (inactive) | 2.14 µM (inactive) | 1.76 µM (inactive) | 1.93 µM (inactive) | 2.04 µM (inactive) | 1.77 µM (inactive) | 2.45 µM (inactive) | 1.7 µM (inactive) | 1.74 µM (inactive) | 2.7 µM (inactive) | 1.77 µM (inactive)
O=C1C2=Cc3ccccc3CCN2c2ccc([N+](=O)[O-])cc21 | 43.2 µM (inactive) | 53.3 µM (inactive) | 43.2 µM (inactive) | > 100 µM (inactive) | > 100 µM (inactive) | > 100 µM (inactive) | > 100 µM (inactive) | 32.7 µM (inactive) | 38.5 µM (inactive) | 30.7 µM (inactive) | 35.4 µM (inactive) | > 100 µM (inactive) | > 100 µM (inactive) | 91.4 µM (inactive) | 36.6 µM (inactive) | > 100 µM (inactive) | 66.8 µM (inactive) | > 100 µM (inactive) | 83 µM (inactive) | 36.4 µM (inactive)
COc1ccc(C2(c3ccc(OC)cc3)OC(=O)c3cccc4cccc2c34)cc1 | 7.93 µM (inactive) | 3.18 µM (inactive) | 2.81 µM (inactive) | 5.93 µM (inactive) | 3.85 µM (inactive) | > 100 µM (inactive) | 2.69 µM (inactive) | 5.37 µM (inactive) | 12.6 µM (inactive) | 4.69 µM (inactive) | 15.7 µM (inactive) | 3.12 µM (inactive) | 15.9 µM (inactive) | > 100 µM (inactive) | 3.97 µM (inactive) | 94 µM (inactive) | 2.54 µM (inactive) | 5.18 µM (inactive) | 5.94 µM (inactive) | > 100 µM (inactive)
